The results in this text go back to publication PMC3712578, “Luteolin is a novel p90 ribosomal S6 kinase (RSK) inhibitor that suppresses Notch4 signaling by blocking the activation of Y-box binding protein-1 (YB-1)” (Oncotarget, 2013).

Experiment [1] has as its target T1, RSK1 (Homo sapiens, UniProt Q15418).
T1 construct: gene RPS6KA1
Put plainly: in vitro RSK1 kinase assay, YB-1 peptide ([…] screen) and S6K peptide dose response. In kind it is biochemical.

The target of experiment [2] is T2, RSK2 (Homo sapiens, UniProt P51812).
T2 construct: gene RPS6KA3
Put plainly: in vitro RSK2 kinase assay, YB-1 peptide substrate. In kind it is biochemical.

Experiment [3] concerns the target T2, RSK2. Put plainly: biochemical. On the set-up: In vitro RSK2 kinase assay with S6K peptide substrate, dose-response 0.001-100 uM (SignalChem). The procedure: Following the RSK1 screen, a broad dose-response study (0.001-100 μM) was conducted against RSK2 using the YB-1 peptide as a substrate in cell-free assays (Table 2). […] Kinase profiling services for RSK2 were provided by SignalChem, as previously described. […] To confirm inhibition of RSK2 activity, we also repeated the kinase assay with a secondary RSK substrate, S6K.

Experiment [4] deals with T1, RSK1. Put plainly: biochemical. On the set-up: In vitro RSK1 kinase assay with S6K peptide substrate, dose-response 0.001-100 uM.
Where [5] appears, read: read-out: Inhibition of RSK2 (%) against the YB-1 peptide as the substrate / IC50.

T1 sequence (Q15418 whole entry): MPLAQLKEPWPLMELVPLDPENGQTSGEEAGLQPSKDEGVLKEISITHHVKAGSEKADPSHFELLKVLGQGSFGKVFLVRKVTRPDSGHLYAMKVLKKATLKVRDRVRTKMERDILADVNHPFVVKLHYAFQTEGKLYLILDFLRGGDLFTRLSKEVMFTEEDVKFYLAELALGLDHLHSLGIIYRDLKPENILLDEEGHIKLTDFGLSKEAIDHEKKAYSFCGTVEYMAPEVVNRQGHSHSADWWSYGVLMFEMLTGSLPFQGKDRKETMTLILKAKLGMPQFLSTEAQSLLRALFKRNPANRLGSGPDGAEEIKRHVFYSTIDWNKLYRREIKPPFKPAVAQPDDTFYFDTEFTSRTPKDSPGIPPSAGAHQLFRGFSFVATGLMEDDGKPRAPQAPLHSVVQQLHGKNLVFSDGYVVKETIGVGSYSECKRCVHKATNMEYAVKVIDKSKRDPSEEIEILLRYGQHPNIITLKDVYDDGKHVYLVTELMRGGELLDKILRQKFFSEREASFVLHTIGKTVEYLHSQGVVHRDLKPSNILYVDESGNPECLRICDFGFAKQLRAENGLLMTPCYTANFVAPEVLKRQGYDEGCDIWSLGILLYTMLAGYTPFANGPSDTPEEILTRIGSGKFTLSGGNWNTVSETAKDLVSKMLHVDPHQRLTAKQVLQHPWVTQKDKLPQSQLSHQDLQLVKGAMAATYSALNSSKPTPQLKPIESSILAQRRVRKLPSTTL
T2 sequence (P51812 whole entry): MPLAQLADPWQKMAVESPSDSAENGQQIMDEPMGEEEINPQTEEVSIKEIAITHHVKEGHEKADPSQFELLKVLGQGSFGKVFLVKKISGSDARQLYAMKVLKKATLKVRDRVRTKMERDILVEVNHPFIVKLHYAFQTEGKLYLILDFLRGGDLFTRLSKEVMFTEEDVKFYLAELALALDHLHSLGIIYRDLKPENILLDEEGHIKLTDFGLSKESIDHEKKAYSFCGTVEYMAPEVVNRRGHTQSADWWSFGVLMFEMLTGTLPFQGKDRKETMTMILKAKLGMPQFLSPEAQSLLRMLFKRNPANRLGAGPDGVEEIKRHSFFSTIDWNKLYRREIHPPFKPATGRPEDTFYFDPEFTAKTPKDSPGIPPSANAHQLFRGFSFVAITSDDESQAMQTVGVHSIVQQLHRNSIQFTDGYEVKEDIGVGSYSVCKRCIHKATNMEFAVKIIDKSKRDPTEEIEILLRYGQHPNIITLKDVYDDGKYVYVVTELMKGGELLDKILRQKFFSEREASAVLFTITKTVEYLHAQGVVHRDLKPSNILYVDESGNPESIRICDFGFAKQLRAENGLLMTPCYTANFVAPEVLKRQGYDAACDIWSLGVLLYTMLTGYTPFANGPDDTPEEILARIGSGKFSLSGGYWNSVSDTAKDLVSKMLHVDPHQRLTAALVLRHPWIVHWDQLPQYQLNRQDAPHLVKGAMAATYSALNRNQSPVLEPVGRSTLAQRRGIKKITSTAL

Regarding `O=c1c(O)c(-c2ccc(O)cc2)oc2cc(O)cc(O)c12` [Kaempferol], the “in vitro RSK1 kinase assay, YB-1 peptide (10 μM screen) and S6K peptide dose res” value in experiment [1] is reported as “all three compounds inhibited the kinase activity of both isoforms in the low micromolar range”. For the same compound, the IC50 came to 1.71 µM in experiment [2] (setting [5]), 760 nM in experiment [3] and 1480 nM in experiment [4].

In the case of `O=c1cc(-c2ccc(O)c(O)c2)oc2cc(O)cc(O)c12` [Luteolin], in experiment [1], the “in vitro RSK1 kinase assay, YB-1 peptide (10 μM screen) and S6K peptide dose res” value is listed as “all three compounds inhibited the kinase activity of both isoforms in the low micromolar range”. Moreover, the IC50 was determined as 4.42 µM in experiment [2] (setting [5]) and 2250 nM in experiment [4].

For `O=c1cc(-c2ccc(O)cc2)oc2cc(O)cc(O)c12` [Apigenin], the results for the IC50 in experiment [2], in experiment [3] and in experiment [4] were 4.77 µM, 3480 nM and 3780 nM, respectively.
